From US9492377B2, “Effervescent composition in solid form for use in vaginal applications for the treatment of vaginal infections” (PROBIOTICAL S.P.A., priority 2011, dated 2016)

Tested on: microorganisms

O=C(O)CCCCC(=O)O [Adipic acid]
portion of the total mortality observed accounted for by the toxicity: about 60%
toxicity (mortality) on its own (pH 4.24): 45.8%
